Details: human, in vivo

CCOc1ccc(-c2cc(C)cn2-c2ccc(S(N)(=O)=O)cc2)cc1 [2-(4-ethoxyphenyl)-4-methyl-1-(4-sulfamoylphenyl)-pyrrole]
gastric or duodenal toxicity compared to placebo: no increase

Reference: patent US20120015919A1, “THERAPIES FOR TREATING CANCER USING COMBINATIONS OF COX-2 INHIBITORS AND AROMATASE INHIBITORS OR COMBINATIONS OF COX-2 INHIBITORS AND ESTROGEN RECEPTOR ANTAGONISTS” (Tragara Pharmaceuticals, Inc., priority 2007, published 2012)
